Measurements reported in PubChem BioAssay AID1259407 (Chemical Carcinogenesis Research Information System (CCRIS), 2018).
The source made the active and inactive calls. The rule behind the calls is not given here.

Test system: CCRIS mutagenicity, Ames/micronucleus/aberration tests
Test: CCRIS mutagenicity studies
[1] = Test System: AMES SALMONELLA TYPHIMURIUM, Strain/Indicator: TA98, Metabolic Activation: NONE, Method: STANDARD PLATE
[2] = Test System: AMES SALMONELLA TYPHIMURIUM, Strain/Indicator: TA98, Metabolic Activation: RAT, LIVER, S-9, AROCLOR 1254, Method: STANDARD PLATE
[3] = Test System: AMES SALMONELLA TYPHIMURIUM, Strain/Indicator: TA100, Metabolic Activation: NONE, Method: STANDARD PLATE
[4] = Test System: AMES SALMONELLA TYPHIMURIUM, Strain/Indicator: TA100, Metabolic Activation: RAT, LIVER, S-9, AROCLOR 1254, Method: STANDARD PLATE
[5] = Test System: AMES SALMONELLA TYPHIMURIUM, Strain/Indicator: TA98, Metabolic Activation: NONE, Method: PREINCUBATION
[6] = Test System: AMES SALMONELLA TYPHIMURIUM, Strain/Indicator: TA100, Metabolic Activation: NONE, Method: PREINCUBATION

With `O=c1[nH]cnc2[nH]ncc12` the mutagenic call (Test System: AMES SALMONELLA TYPHIMURIUM, Strain/Indicator: TA98, Metabolic Activation: HAMSTER, LIVER, S-9, AROCLOR 1254, Method: STANDARD PLATE) was “inactive; negative”, the mutagenic call [1] was “inactive; negative” and the mutagenic call [2] was “inactive; negative”. The mutagenic call (Test System: AMES SALMONELLA TYPHIMURIUM, Strain/Indicator: TA100, Metabolic Activation: HAMSTER, LIVER, S-9, AROCLOR 1254, Method: STANDARD PLATE) was “inactive; negative”, the mutagenic call [3] was “inactive; negative” and the mutagenic call [4] was “inactive; negative”. The mutagenic call (Test System: AMES SALMONELLA TYPHIMURIUM, Strain/Indicator: TA1535, Metabolic Activation: HAMSTER, LIVER, S-9, AROCLOR 1254, Method: STANDARD PLATE) was “inactive; negative”, the mutagenic call (Test System: AMES SALMONELLA TYPHIMURIUM, Strain/Indicator: TA1535, Metabolic Activation: NONE, Method: STANDARD PLATE) was “inactive; negative” and the mutagenic call (Test System: AMES SALMONELLA TYPHIMURIUM, Strain/Indicator: TA1535, Metabolic Activation: RAT, LIVER, S-9, AROCLOR 1254, Method: STANDARD PLATE) was “inactive; negative”. For the same compound, the mutagenic call (Test System: AMES SALMONELLA TYPHIMURIUM, Strain/Indicator: TA1537, Metabolic Activation: HAMSTER, LIVER, S-9, AROCLOR 1254, Method: STANDARD PLATE) was “inactive; negative”, the mutagenic call (Test System: AMES SALMONELLA TYPHIMURIUM, Strain/Indicator: TA1537, Metabolic Activation: NONE, Method: STANDARD PLATE) was “inactive; negative” and the mutagenic call (Test System: AMES SALMONELLA TYPHIMURIUM, Strain/Indicator: TA1537, Metabolic Activation: RAT, LIVER, S-9, AROCLOR 1254, Method: STANDARD PLATE) was “inactive; negative”. For the same compound, the mutagenic call (Test System: AMES SALMONELLA TYPHIMURIUM, Strain/Indicator: TA1538, Metabolic Activation: HAMSTER, LIVER, S-9, AROCLOR 1254, Method: STANDARD PLATE) was “inactive; negative”, the mutagenic call (Test System: AMES SALMONELLA TYPHIMURIUM, Strain/Indicator: TA1538, Metabolic Activation: NONE, Method: STANDARD PLATE) was “inactive; negative” and the mutagenic call (Test System: AMES SALMONELLA TYPHIMURIUM, Strain/Indicator: TA1538, Metabolic Activation: RAT, LIVER, S-9, AROCLOR 1254, Method: STANDARD PLATE) was “inactive; negative”. For the same compound, the mutagenic call (Test System: MOUSE LYMPHOMA, Strain/Indicator: L5178Y (TK+/TK-), Metabolic Activation: NONE, Method: SUSPENSION/PLATE) was “inactive; negative. reevaluation of results: negative” and the mutagenic call (Test System: MOUSE LYMPHOMA, Strain/Indicator: L5178Y (TK+/TK-), Metabolic Activation: RAT, LIVER, S-9, AROCLOR 1254, Method: SUSPENSION/PLATE) was “inactive; negative. reevaluation of results: negative”.
With `O=C(O)COc1ccc(Cl)cc1` the mutagenic call (Test System: AMES SALMONELLA TYPHIMURIUM, Strain/Indicator: TA97, Metabolic Activation: NONE, Method: STANDARD PLATE) was “inactive; negative”, the mutagenic call (Test System: AMES SALMONELLA TYPHIMURIUM, Strain/Indicator: TA97, Metabolic Activation: RAT, LIVER, S-9, AROCLOR 1254, Method: STANDARD PLATE) was “inactive; negative” and the mutagenic call [1] was “inactive; negative”. The mutagenic call [2] was “inactive; negative”, the mutagenic call [3] was “inactive; negative” and the mutagenic call [4] was “inactive; negative”. For the same compound, the mutagenic call (Test System: AMES SALMONELLA TYPHIMURIUM, Strain/Indicator: TA102, Metabolic Activation: NONE, Method: STANDARD PLATE) was “inactive; negative” and the mutagenic call (Test System: AMES SALMONELLA TYPHIMURIUM, Strain/Indicator: TA102, Metabolic Activation: RAT, LIVER, S-9, AROCLOR 1254, Method: STANDARD PLATE) was “inactive; negative”.
In the case of `N#Cc1cc([N+](=O)[O-])ccc1N`, the mutagenic call [5] is reported as “active; positive”, the mutagenic call (Test System: AMES SALMONELLA TYPHIMURIUM, Strain/Indicator: TA98, Metabolic Activation: RAT, LIVER, S-9, PHENOBARBITAL AND BETA-NAPHTHOFLAVONE, Method: PREINCUBATION) is reported as “active; positive” and the mutagenic call [6] is reported as “active; positive”. The mutagenic call (Test System: AMES SALMONELLA TYPHIMURIUM, Strain/Indicator: TA100, Metabolic Activation: RAT, LIVER, S-9, PHENOBARBITAL AND BETA-NAPHTHOFLAVONE, Method: PREINCUBATION) was “active; positive”.
For `N#Cc1cccc(/C=C/c2ccc([N+](=O)[O-])cc2)c1`, the mutagenic call (Test System: AMES SALMONELLA TYPHIMURIUM, Strain/Indicator: TA98(NR), Metabolic Activation: NONE, Method: STANDARD PLATE) was “active; positive”, the mutagenic call (Test System: AMES SALMONELLA TYPHIMURIUM, Strain/Indicator: TA98 (NR), Metabolic Activation: S-9, Method: STANDARD PLATE) was “active; positive” and the mutagenic call [1] was “active; positive”. The mutagenic call (Test System: AMES SALMONELLA TYPHIMURIUM, Strain/Indicator: TA98, Metabolic Activation: S-9, Method: STANDARD PLATE) was “active; positive”, the mutagenic call (Test System: AMES SALMONELLA TYPHIMURIUM, Strain/Indicator: TA100 (NR), Metabolic Activation: NONE, Method: STANDARD PLATE) was “inactive; negative” and the mutagenic call (Test System: AMES SALMONELLA TYPHIMURIUM, Strain/Indicator: TA100(NR), Metabolic Activation: S-9, Method: STANDARD PLATE) was “inactive; negative”. The mutagenic call [3] was “active; positive” and the mutagenic call (Test System: AMES SALMONELLA TYPHIMURIUM, Strain/Indicator: TA100, Metabolic Activation: S-9, Method: STANDARD PLATE) was “active; positive”.
`CC(C)(c1ccc(O)cc1)c1ccc(O)cc1` (tested in a mixture with another compound) was tested, and the mutagenic call (End Point: IN VITRO CHROMOSOMAL ABERRATIONS, Test System: CHL CELLS, Metabolic Activation: NONE) was “active; positive (structural changes)” and the mutagenic call (End Point: IN VITRO CHROMOSOMAL ABERRATIONS, Test System: CHL CELLS, Metabolic Activation: RAT, LIVER, S-9, SODIUM PHENOBARBITAL AND 5,6-BENZOFLAVONE) was “inactive; negative; authors report equivocal results for structural changes at 0.63 and 1”.
With `O=[N+]([O-])c1c(O)ccc2c1[nH]c1ccccc12` the mutagenic call [1] was “inactive; negative” and the mutagenic call [2] was “inactive; negative”.
For `COC[C@@H]1C=C2c3cccc4c3c(cn4C)C[C@H]2N(C)C1`, the mutagenic call [4] was “active; positive”.
In the case of `CCC=O`, the mutagenic call [5] is reported as “inactive; negative”, the mutagenic call (Test System: AMES SALMONELLA TYPHIMURIUM, Strain/Indicator: TA98, Metabolic Activation: RAT, LIVER, S-9, AROCLOR 1254, Method: PREINCUBATION) is reported as “inactive; negative” and the mutagenic call [6] is reported as “inactive; negative”. The mutagenic call (Test System: AMES SALMONELLA TYPHIMURIUM, Strain/Indicator: TA100, Metabolic Activation: RAT LIVER S-9, AROCLOR 1254, Method: PREINCUBATION) was “inactive; negative”, the mutagenic call (Test System: AMES SALMONELLA TYPHIMURIUM, Strain/Indicator: TA100, Metabolic Activation: RAT, LIVER, S-9, AROCLOR 1254, Method: PREINCUBATION) was “inactive; negative” and the mutagenic call (Test System: AMES SALMONELLA TYPHIMURIUM, Strain/Indicator: TA102, Metabolic Activation: NONE, Method: PREINCUBATION) was “inactive; negative”. For the same compound, the mutagenic call (Test System: AMES SALMONELLA TYPHIMURIUM, Strain/Indicator: TA102, Metabolic Activation: RAT LIVER S-9, AROCLOR 1254, Method: PREINCUBATION) was “inactive; negative”, the mutagenic call (Test System: AMES SALMONELLA TYPHIMURIUM, Strain/Indicator: TA102, Metabolic Activation: RAT, LIVER, S-9, AROCLOR 1254, Method: PREINCUBATION) was “inactive; negative” and the mutagenic call (Test System: AMES SALMONELLA TYPHIMURIUM, Strain/Indicator: TA104, Metabolic Activation: NONE, Method: PREINCUBATION) was “inactive; negative”. The mutagenic call (Test System: AMES SALMONELLA TYPHIMURIUM, Strain/Indicator: TA104, Metabolic Activation: RAT LIVER S-9, AROCLOR 1254, Method: PREINCUBATION) was “inactive; negative”, the mutagenic call (Test System: CHINESE HAMSTER V-79, Strain/Indicator: V-79/6-THIOGUANINE (HGPRT), Metabolic Activation: NONE, Method: REPLATING) was “active; positive” and the mutagenic call (Test System: CHINESE HAMSTER V-79, Strain/Indicator: V-79/6-THIOGUANINE, Metabolic Activation: NONE) was “inactive; negative”. The mutagenic call (Test System: CHINESE HAMSTER V-79, Strain/Indicator: V-79/OUABAIN (NA/K), Metabolic Activation: NONE, Method: REPLATING) was “active; positive”, the mutagenic call (Test System: UDS HUMAN HEPATOCYTES, Strain/Indicator: THY INCORP, Metabolic Activation: NONE, Method: AUTORADIOGRAPHY) was “inactive; negative” and the mutagenic call (Test System: UDS RAT HEPATOCYTES, Strain/Indicator: THY INCORP, Metabolic Activation: NONE, Method: AUTORADIOGRAPHY) was “active; positive”.
